Experimental data as given in US20220009920A1 (GB005, Inc., priority 2020, published 2022).

Columns and labels:
Assay in all cases: Large panel kinase profiling
Format in all cases: biochemical
Settings in all cases: 1 μM test article, 1 mM ATP
JAK2(JH1JH2) = molecular target: T1, JAK2(JH1JH2) (Homo sapiens, UniProt O60674)
T1 construct: JAK2(JH1JH2)
How it was run: (§1)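 Continuous-read kinase assay: chelation-sensor peptide, 1 mM ATP, compound at 1 μM. Plates kept at 30° C.; fluorescence sampled at 1-min intervals (360/485 nm).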

LYNA = LYNA (Homo sapiens, UniProt P07948)
How it was run: as §1

GRK4 = molecular target: T2, GRK4 (Homo sapiens, UniProt P32298)
T2 construct: AssayQuant Technologies, Inc. (service provider)
How it was run: as §1

MERTK/MER = molecular target: T3, MERTK/MER (Homo sapiens, UniProt Q12866)
T3 construct: AssayQuant Technologies, Inc. (assay service)
T3 sequence (Q12866 21-999): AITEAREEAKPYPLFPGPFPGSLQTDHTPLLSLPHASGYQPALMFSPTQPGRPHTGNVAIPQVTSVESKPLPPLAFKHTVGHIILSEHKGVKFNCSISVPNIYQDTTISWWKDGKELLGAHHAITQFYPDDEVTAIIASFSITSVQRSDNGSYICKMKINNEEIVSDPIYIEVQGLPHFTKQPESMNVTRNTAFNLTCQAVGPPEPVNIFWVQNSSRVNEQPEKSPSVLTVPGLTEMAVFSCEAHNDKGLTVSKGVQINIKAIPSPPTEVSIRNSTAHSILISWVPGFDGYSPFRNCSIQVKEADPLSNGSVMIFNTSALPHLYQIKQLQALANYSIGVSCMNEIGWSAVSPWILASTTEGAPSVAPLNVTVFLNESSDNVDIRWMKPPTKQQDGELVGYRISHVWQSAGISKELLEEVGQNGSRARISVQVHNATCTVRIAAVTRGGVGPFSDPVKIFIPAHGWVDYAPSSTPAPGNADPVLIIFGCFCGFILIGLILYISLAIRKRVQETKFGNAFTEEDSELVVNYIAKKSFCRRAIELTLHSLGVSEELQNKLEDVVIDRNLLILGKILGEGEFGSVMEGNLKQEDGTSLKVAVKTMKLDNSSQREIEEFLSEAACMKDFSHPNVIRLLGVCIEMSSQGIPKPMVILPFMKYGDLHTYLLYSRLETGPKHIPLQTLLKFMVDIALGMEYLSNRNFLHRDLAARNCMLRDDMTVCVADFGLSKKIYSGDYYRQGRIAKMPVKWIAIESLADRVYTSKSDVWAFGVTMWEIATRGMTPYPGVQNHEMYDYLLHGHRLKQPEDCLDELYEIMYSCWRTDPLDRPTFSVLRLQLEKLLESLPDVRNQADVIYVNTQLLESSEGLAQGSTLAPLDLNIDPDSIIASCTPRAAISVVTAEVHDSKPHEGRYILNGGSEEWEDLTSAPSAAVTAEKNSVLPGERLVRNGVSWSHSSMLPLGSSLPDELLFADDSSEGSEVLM
How it was run: as §1

MUSK = molecular target: T4, MUSK (Homo sapiens, UniProt O15146)
T4 construct: AssayQuant Technologies, Inc. (assay service)
T4 sequence (O15146 24-869): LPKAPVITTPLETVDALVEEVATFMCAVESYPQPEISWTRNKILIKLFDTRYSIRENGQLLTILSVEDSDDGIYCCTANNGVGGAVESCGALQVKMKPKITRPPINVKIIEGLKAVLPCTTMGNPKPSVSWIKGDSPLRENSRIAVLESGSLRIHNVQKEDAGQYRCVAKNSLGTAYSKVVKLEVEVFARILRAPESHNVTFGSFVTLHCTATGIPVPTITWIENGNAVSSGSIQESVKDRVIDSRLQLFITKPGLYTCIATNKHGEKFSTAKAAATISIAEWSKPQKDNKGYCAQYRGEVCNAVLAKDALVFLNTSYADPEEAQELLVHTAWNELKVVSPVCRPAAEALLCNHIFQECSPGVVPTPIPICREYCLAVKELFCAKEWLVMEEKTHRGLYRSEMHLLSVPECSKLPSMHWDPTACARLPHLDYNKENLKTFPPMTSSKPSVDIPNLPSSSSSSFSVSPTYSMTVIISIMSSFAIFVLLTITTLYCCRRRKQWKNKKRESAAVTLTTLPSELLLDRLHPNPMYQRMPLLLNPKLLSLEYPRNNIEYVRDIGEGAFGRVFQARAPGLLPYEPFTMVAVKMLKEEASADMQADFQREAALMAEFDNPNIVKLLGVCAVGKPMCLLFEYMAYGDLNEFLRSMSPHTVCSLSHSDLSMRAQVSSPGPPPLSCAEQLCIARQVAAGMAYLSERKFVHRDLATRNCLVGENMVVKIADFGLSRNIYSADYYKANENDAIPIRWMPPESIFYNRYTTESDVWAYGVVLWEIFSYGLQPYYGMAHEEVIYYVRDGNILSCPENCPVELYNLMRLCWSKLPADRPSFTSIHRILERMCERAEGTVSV
How it was run: as §1

MARK1 = molecular target: T5, MARK1 (Homo sapiens, UniProt Q9P0L2)
T5 construct: AssayQuant Technologies, Inc. (assay service)
How it was run: as §1

T1 sequence (O60674 532-1132 limits assumed, species assumed): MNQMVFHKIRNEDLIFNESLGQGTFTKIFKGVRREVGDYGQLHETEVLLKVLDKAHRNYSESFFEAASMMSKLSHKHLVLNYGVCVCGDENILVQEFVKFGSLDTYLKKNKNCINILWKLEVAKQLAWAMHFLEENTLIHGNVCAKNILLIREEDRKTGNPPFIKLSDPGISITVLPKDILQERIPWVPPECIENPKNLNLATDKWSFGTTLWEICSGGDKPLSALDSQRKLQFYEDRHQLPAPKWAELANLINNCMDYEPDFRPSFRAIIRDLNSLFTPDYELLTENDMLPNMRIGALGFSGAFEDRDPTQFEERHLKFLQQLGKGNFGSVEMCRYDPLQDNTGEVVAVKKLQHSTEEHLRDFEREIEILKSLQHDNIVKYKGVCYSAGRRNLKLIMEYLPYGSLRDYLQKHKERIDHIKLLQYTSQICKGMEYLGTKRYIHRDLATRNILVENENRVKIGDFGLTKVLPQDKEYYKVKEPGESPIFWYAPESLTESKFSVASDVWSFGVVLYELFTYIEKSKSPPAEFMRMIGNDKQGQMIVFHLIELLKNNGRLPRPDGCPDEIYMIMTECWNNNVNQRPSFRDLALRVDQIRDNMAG
T2 sequence (P32298 whole entry, species assumed): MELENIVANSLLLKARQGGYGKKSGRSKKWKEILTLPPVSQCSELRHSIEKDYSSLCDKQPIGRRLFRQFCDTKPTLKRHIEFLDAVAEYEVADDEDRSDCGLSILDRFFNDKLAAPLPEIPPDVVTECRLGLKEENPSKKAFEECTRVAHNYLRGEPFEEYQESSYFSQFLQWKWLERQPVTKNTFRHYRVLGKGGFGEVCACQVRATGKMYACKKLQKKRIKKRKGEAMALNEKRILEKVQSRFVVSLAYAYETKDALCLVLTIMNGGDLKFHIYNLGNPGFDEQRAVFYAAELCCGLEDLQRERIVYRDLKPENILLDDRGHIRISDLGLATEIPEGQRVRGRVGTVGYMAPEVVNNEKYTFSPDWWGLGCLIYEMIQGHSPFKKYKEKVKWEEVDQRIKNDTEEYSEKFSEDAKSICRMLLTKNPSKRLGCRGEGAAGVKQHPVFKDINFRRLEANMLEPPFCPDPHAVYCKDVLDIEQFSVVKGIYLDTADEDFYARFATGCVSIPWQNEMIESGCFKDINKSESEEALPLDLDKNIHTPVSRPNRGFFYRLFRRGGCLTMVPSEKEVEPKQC
T5 sequence (Q9P0L2 whole entry, species assumed): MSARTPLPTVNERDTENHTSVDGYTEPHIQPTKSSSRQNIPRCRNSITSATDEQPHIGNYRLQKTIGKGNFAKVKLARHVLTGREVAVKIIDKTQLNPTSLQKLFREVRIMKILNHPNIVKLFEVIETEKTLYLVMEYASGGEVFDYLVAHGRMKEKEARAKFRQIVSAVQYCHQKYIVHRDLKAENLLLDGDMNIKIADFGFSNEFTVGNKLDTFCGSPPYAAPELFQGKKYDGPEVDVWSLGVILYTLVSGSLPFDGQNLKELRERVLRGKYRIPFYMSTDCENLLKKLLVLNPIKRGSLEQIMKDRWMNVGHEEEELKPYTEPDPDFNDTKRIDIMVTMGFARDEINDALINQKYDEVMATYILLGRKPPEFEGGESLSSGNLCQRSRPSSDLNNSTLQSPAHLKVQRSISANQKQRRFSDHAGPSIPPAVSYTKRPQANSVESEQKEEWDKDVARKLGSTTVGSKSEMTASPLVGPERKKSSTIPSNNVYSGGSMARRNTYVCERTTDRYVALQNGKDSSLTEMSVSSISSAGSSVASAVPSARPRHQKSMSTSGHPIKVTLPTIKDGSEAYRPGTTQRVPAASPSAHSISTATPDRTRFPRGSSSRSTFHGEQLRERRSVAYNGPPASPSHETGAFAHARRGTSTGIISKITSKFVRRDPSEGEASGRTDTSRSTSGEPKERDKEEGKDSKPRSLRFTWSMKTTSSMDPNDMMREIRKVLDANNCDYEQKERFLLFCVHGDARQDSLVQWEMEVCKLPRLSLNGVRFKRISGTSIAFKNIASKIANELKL
Chain of LYNA (P07948 whole entry, species assumed): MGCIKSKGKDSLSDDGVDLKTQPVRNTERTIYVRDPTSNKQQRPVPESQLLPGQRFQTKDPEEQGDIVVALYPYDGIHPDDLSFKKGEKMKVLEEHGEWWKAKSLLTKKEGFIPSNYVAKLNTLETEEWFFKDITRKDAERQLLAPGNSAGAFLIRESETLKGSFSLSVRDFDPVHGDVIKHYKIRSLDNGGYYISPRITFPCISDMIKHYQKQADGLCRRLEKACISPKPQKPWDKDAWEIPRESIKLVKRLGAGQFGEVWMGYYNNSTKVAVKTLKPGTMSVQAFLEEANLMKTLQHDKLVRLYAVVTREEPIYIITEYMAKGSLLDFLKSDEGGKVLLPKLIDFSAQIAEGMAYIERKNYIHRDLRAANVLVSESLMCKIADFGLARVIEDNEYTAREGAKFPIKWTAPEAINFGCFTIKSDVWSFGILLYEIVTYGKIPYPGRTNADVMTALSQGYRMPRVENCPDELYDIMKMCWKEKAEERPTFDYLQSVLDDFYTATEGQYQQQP

Row | Structure (SMILES) | inhibition at 1 µM (JAK2(JH1JH2)) [%] | inhibition at 1 µM (LYNA) [%] | inhibition at 1 µM (GRK4) [%] | inhibition at 1 µM (MERTK/MER) [%] | inhibition at 1 µM (MUSK) [%] | inhibition at 1 µM (MARK1) [%]
1 | C=CC(=O)N1CCCC(c2c(F)cc(C(N)=O)c3[nH]c4c(c23)CCCCC4)C1 (single isomer, unassigned) [Compound 5-6] | 1 | -2.9 | 3.4 | -0.8 | 10.9 | 15.4
2 | C=CC(=O)N1CCC[C@@H](c2c(F)cc(C(N)=O)c3[nH]c4c(c23)CCC4)C1 [Compound 10-2, (S)-8-(1-acryloylpiperidin-3-yl)-7-fluoro-1,2,3,4-tetrahydrocyclo-penta[b]indole-5-carboxamide] | -9.8 | 22.8 | -36.1 | 14.8 | 3 | -12.9
3 | C=CC(=O)N1CCC[C@@H](c2c(F)cc(C(N)=O)c3[nH]c4c(c23)CC2(CC4)CC2)C1 [Compound 6-2, (S)-5-(1-acryloylpiperidin-3-yl)-6-fluoro-1,2,4,9-tetrahydrospiro[carbazole-3,1′-cyclopropane]-8-carboxamide] | -9.4 | 36.4 | -53 | 12.4 | -3.1 | -63.9
